Laboratory results as given in the supplement of paper PMC10307832.

Legend:
Assay in all cases: relative viability (nuclei count vs DMSO), 5 days (fraction); higher = more cells survive
AZ505 + Lapatinib = compound: C1CCC(CC1)N(CCNCCC2=C3C(=C(C=C2)O)NC(=O)CO3)C(=O)CCNCCC4=CC(=C(C=C4)Cl)Cl [AZ505] + CS(=O)(=O)CCNCc1ccc(-c2ccc3ncnc(Nc4ccc(OCc5cccc(F)c5)c(Cl)c4)c3c2)o1 [Lapatinib] (partner 2 µM)
In short: (§1)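 Lung cancer cell lines were pin-tool dosed in 1536-well plates on the day after seeding, with either a lone drug or a fixed anchor-drug dose plus five library-drug doses (not always all listed) in √10 steps. Nuclei were counted on 4× images after 5 days. Relative viability is the ratio of treated-well to vehicle-well nuclei counts, with each value a median of duplicate plates.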

Dactolisib + Phenformin = compound: Cn1c(=O)n(-c2ccc(C(C)(C)C#N)cc2)c2c3cc(-c4cnc5ccccc5c4)ccc3ncc21 [Dactolisib] + N=C(N)NC(=N)NCCc1ccccc1 [Phenformin] (partner 250 µM)
In short: as §1

Dactolisib + Palbociclib = compound: Cn1c(=O)n(-c2ccc(C(C)(C)C#N)cc2)c2c3cc(-c4cnc5ccccc5c4)ccc3ncc21 [Dactolisib] + CC(=O)c1c(C)c2cnc(Nc3ccc(N4CCNCC4)cn3)nc2n(C2CCCC2)c1=O [Palbociclib] (partner 0.5 µM)
In short: as §1

Dactolisib + Luminespib = compound: Cn1c(=O)n(-c2ccc(C(C)(C)C#N)cc2)c2c3cc(-c4cnc5ccccc5c4)ccc3ncc21 [Dactolisib] + CCNC(=O)c1noc(-c2cc(C(C)C)c(O)cc2O)c1-c1ccc(CN2CCOCC2)cc1 [Luminespib] (partner 0.01 µM)
In short: as §1

Cell Line: HOP-62
- relative viability (AZ505 + Lapatinib; first compound 0.08 µM): 0.878
- relative viability (AZ505 + Lapatinib; first compound 0.253 µM): 1.22
- relative viability (AZ505 + Lapatinib; first compound 0.8 µM): 1.08
- relative viability (AZ505 + Lapatinib; first compound 2.53 µM): 1.03
- relative viability (AZ505 + Lapatinib; first compound 8 µM): 0.942
- relative viability (Dactolisib + Phenformin; first compound 0.002 µM): 0.736
- relative viability (Dactolisib + Phenformin; first compound 0.006325 µM): 0.654
- relative viability (Dactolisib + Phenformin; first compound 0.02 µM): 0.655
- relative viability (Dactolisib + Phenformin; first compound 0.06325 µM): 0.405
- relative viability (Dactolisib + Phenformin; first compound 0.2 µM): 0.356
- relative viability (Dactolisib + Palbociclib; first compound 0.002 µM): 0.467
- relative viability (Dactolisib + Palbociclib; first compound 0.006325 µM): 0.45
- relative viability (Dactolisib + Palbociclib; first compound 0.02 µM): 0.383
- relative viability (Dactolisib + Palbociclib; first compound 0.06325 µM): 0.288
- relative viability (Dactolisib + Palbociclib; first compound 0.2 µM): 0.147
- relative viability (Dactolisib + Luminespib; first compound 0.002 µM): 0.983
- relative viability (Dactolisib + Luminespib; first compound 0.006325 µM): 0.812
- relative viability (Dactolisib + Luminespib; first compound 0.02 µM): 0.888
- relative viability (Dactolisib + Luminespib; first compound 0.06325 µM): 0.543
- relative viability (Dactolisib + Luminespib; first compound 0.2 µM): 0.561

Cell Line: LOU-NH91
- relative viability (AZ505 + Lapatinib; first compound 0.08 µM): 0.753
- relative viability (AZ505 + Lapatinib; first compound 0.253 µM): 0.724
- relative viability (AZ505 + Lapatinib; first compound 0.8 µM): 0.761
- relative viability (AZ505 + Lapatinib; first compound 2.53 µM): 0.84
- relative viability (AZ505 + Lapatinib; first compound 8 µM): 0.779
- relative viability (Dactolisib + Phenformin; first compound 0.002 µM): 0.625
- relative viability (Dactolisib + Phenformin; first compound 0.006325 µM): 0.731
- relative viability (Dactolisib + Phenformin; first compound 0.02 µM): 0.642
- relative viability (Dactolisib + Phenformin; first compound 0.06325 µM): 0.437
- relative viability (Dactolisib + Phenformin; first compound 0.2 µM): 0.447
- relative viability (Dactolisib + Palbociclib; first compound 0.002 µM): 0.532
- relative viability (Dactolisib + Palbociclib; first compound 0.006325 µM): 0.548
- relative viability (Dactolisib + Palbociclib; first compound 0.02 µM): 0.549
- relative viability (Dactolisib + Palbociclib; first compound 0.06325 µM): 0.524
- relative viability (Dactolisib + Palbociclib; first compound 0.2 µM): 0.52
- relative viability (Dactolisib + Luminespib; first compound 0.002 µM): 0.378
- relative viability (Dactolisib + Luminespib; first compound 0.006325 µM): 0.295
- relative viability (Dactolisib + Luminespib; first compound 0.02 µM): 0.351
- relative viability (Dactolisib + Luminespib; first compound 0.06325 µM): 0.316
- relative viability (Dactolisib + Luminespib; first compound 0.2 µM): 0.317

Cell Line: NCI-H2228
- relative viability (AZ505 + Lapatinib; first compound 0.08 µM): 1.09
- relative viability (AZ505 + Lapatinib; first compound 0.253 µM): 0.957
- relative viability (AZ505 + Lapatinib; first compound 0.8 µM): 0.939
- relative viability (AZ505 + Lapatinib; first compound 2.53 µM): 0.885
- relative viability (AZ505 + Lapatinib; first compound 8 µM): 1.11
- relative viability (Dactolisib + Phenformin; first compound 0.002 µM): 0.302
- relative viability (Dactolisib + Phenformin; first compound 0.006325 µM): 0.272
- relative viability (Dactolisib + Phenformin; first compound 0.02 µM): 0.179
- relative viability (Dactolisib + Phenformin; first compound 0.06325 µM): 0.192
- relative viability (Dactolisib + Phenformin; first compound 0.2 µM): 0.164
- relative viability (Dactolisib + Palbociclib; first compound 0.002 µM): 0.882
- relative viability (Dactolisib + Palbociclib; first compound 0.006325 µM): 0.725
- relative viability (Dactolisib + Palbociclib; first compound 0.02 µM): 0.638
- relative viability (Dactolisib + Palbociclib; first compound 0.06325 µM): 0.197
- relative viability (Dactolisib + Palbociclib; first compound 0.2 µM): 0.147
- relative viability (Dactolisib + Luminespib; first compound 0.002 µM): 0.15
- relative viability (Dactolisib + Luminespib; first compound 0.006325 µM): 0.143
- relative viability (Dactolisib + Luminespib; first compound 0.02 µM): 0.112
- relative viability (Dactolisib + Luminespib; first compound 0.06325 µM): 0.176
- relative viability (Dactolisib + Luminespib; first compound 0.2 µM): 0.128

Cell Line: PC-14
- relative viability (AZ505 + Lapatinib; first compound 0.08 µM): 0.316
- relative viability (AZ505 + Lapatinib; first compound 0.253 µM): 0.296
- relative viability (AZ505 + Lapatinib; first compound 0.8 µM): 0.336
- relative viability (AZ505 + Lapatinib; first compound 2.53 µM): 0.411
- relative viability (AZ505 + Lapatinib; first compound 8 µM): 0.319
- relative viability (Dactolisib + Phenformin; first compound 0.002 µM): 0.642
- relative viability (Dactolisib + Phenformin; first compound 0.006325 µM): 0.523
- relative viability (Dactolisib + Phenformin; first compound 0.02 µM): 0.45
- relative viability (Dactolisib + Phenformin; first compound 0.06325 µM): 0.29
- relative viability (Dactolisib + Phenformin; first compound 0.2 µM): 0.144
- relative viability (Dactolisib + Palbociclib; first compound 0.002 µM): 0.654
- relative viability (Dactolisib + Palbociclib; first compound 0.006325 µM): 0.487
- relative viability (Dactolisib + Palbociclib; first compound 0.02 µM): 0.446
- relative viability (Dactolisib + Palbociclib; first compound 0.06325 µM): 0.0827
- relative viability (Dactolisib + Palbociclib; first compound 0.2 µM): 0.0725
- relative viability (Dactolisib + Luminespib; first compound 0.002 µM): 0.136
- relative viability (Dactolisib + Luminespib; first compound 0.006325 µM): 0.16
- relative viability (Dactolisib + Luminespib; first compound 0.02 µM): 0.172
- relative viability (Dactolisib + Luminespib; first compound 0.06325 µM): 0.11
- relative viability (Dactolisib + Luminespib; first compound 0.2 µM): 0.128

Cell Line: NCI-H1437
- relative viability (AZ505 + Lapatinib; first compound 0.08 µM): 0.765
- relative viability (AZ505 + Lapatinib; first compound 0.253 µM): 0.729
- relative viability (AZ505 + Lapatinib; first compound 0.8 µM): 0.757
- relative viability (AZ505 + Lapatinib; first compound 2.53 µM): 0.738
- relative viability (AZ505 + Lapatinib; first compound 8 µM): 0.831
- relative viability (Dactolisib + Phenformin; first compound 0.002 µM): 0.27
- relative viability (Dactolisib + Phenformin; first compound 0.006325 µM): 0.341
- relative viability (Dactolisib + Phenformin; first compound 0.02 µM): 0.323
- relative viability (Dactolisib + Phenformin; first compound 0.06325 µM): 0.296
- relative viability (Dactolisib + Phenformin; first compound 0.2 µM): 0.289
- relative viability (Dactolisib + Palbociclib; first compound 0.002 µM): 0.321
- relative viability (Dactolisib + Palbociclib; first compound 0.006325 µM): 0.328
- relative viability (Dactolisib + Palbociclib; first compound 0.02 µM): 0.369
- relative viability (Dactolisib + Palbociclib; first compound 0.06325 µM): 0.274
- relative viability (Dactolisib + Palbociclib; first compound 0.2 µM): 0.215
- relative viability (Dactolisib + Luminespib; first compound 0.002 µM): 1.15
- relative viability (Dactolisib + Luminespib; first compound 0.006325 µM): 1.18
- relative viability (Dactolisib + Luminespib; first compound 0.02 µM): 1.21
- relative viability (Dactolisib + Luminespib; first compound 0.06325 µM): 1.14
- relative viability (Dactolisib + Luminespib; first compound 0.2 µM): 0.59

Cell Line: NCI-H460
- relative viability (AZ505 + Lapatinib; first compound 0.08 µM): 0.874
- relative viability (AZ505 + Lapatinib; first compound 0.253 µM): 1.1
- relative viability (AZ505 + Lapatinib; first compound 0.8 µM): 0.877
- relative viability (AZ505 + Lapatinib; first compound 2.53 µM): 0.922
- relative viability (AZ505 + Lapatinib; first compound 8 µM): 1.07
- relative viability (Dactolisib + Phenformin; first compound 0.002 µM): 0.506
- relative viability (Dactolisib + Phenformin; first compound 0.006325 µM): 0.474
- relative viability (Dactolisib + Phenformin; first compound 0.02 µM): 0.508
- relative viability (Dactolisib + Phenformin; first compound 0.06325 µM): 0.142
- relative viability (Dactolisib + Phenformin; first compound 0.2 µM): 0.0635
- relative viability (Dactolisib + Palbociclib; first compound 0.002 µM): 0.0965
- relative viability (Dactolisib + Palbociclib; first compound 0.006325 µM): 0.111
- relative viability (Dactolisib + Palbociclib; first compound 0.02 µM): 0.13
- relative viability (Dactolisib + Palbociclib; first compound 0.06325 µM): 0.0706
- relative viability (Dactolisib + Palbociclib; first compound 0.2 µM): 0.0375
- relative viability (Dactolisib + Luminespib; first compound 0.002 µM): 0.0375
- relative viability (Dactolisib + Luminespib; first compound 0.006325 µM): 0.0432
- relative viability (Dactolisib + Luminespib; first compound 0.02 µM): 0.0185
- relative viability (Dactolisib + Luminespib; first compound 0.06325 µM): 0.0179
- relative viability (Dactolisib + Luminespib; first compound 0.2 µM): 0.0243

Cell Line: NCI-H1666
- relative viability (AZ505 + Lapatinib; first compound 0.08 µM): 0.532
- relative viability (AZ505 + Lapatinib; first compound 0.253 µM): 0.544
- relative viability (AZ505 + Lapatinib; first compound 0.8 µM): 0.531
- relative viability (AZ505 + Lapatinib; first compound 2.53 µM): 0.614
- relative viability (AZ505 + Lapatinib; first compound 8 µM): 0.518
- relative viability (Dactolisib + Phenformin; first compound 0.002 µM): 0.593
- relative viability (Dactolisib + Phenformin; first compound 0.006325 µM): 0.53
- relative viability (Dactolisib + Phenformin; first compound 0.02 µM): 0.577
- relative viability (Dactolisib + Phenformin; first compound 0.06325 µM): 0.544
- relative viability (Dactolisib + Phenformin; first compound 0.2 µM): 0.559
- relative viability (Dactolisib + Palbociclib; first compound 0.002 µM): 0.628
- relative viability (Dactolisib + Palbociclib; first compound 0.006325 µM): 0.624
- relative viability (Dactolisib + Palbociclib; first compound 0.02 µM): 0.673
- relative viability (Dactolisib + Palbociclib; first compound 0.06325 µM): 0.622
- relative viability (Dactolisib + Palbociclib; first compound 0.2 µM): 0.579
- relative viability (Dactolisib + Luminespib; first compound 0.002 µM): 1.1
- relative viability (Dactolisib + Luminespib; first compound 0.006325 µM): 0.963
- relative viability (Dactolisib + Luminespib; first compound 0.02 µM): 1.02
- relative viability (Dactolisib + Luminespib; first compound 0.06325 µM): 0.746
- relative viability (Dactolisib + Luminespib; first compound 0.2 µM): 0.788

Cell Line: NCI-H1651
- relative viability (AZ505 + Lapatinib; first compound 0.08 µM): 0.781
- relative viability (AZ505 + Lapatinib; first compound 0.253 µM): 0.709
- relative viability (AZ505 + Lapatinib; first compound 0.8 µM): 0.833
- relative viability (AZ505 + Lapatinib; first compound 2.53 µM): 0.784
- relative viability (AZ505 + Lapatinib; first compound 8 µM): 0.796
- relative viability (Dactolisib + Phenformin; first compound 0.002 µM): 0.333
- relative viability (Dactolisib + Phenformin; first compound 0.006325 µM): 0.279
- relative viability (Dactolisib + Phenformin; first compound 0.02 µM): 0.305
- relative viability (Dactolisib + Phenformin; first compound 0.06325 µM): 0.243
- relative viability (Dactolisib + Phenformin; first compound 0.2 µM): 0.204
- relative viability (Dactolisib + Palbociclib; first compound 0.002 µM): 0.532
- relative viability (Dactolisib + Palbociclib; first compound 0.006325 µM): 0.487
- relative viability (Dactolisib + Palbociclib; first compound 0.02 µM): 0.463
- relative viability (Dactolisib + Palbociclib; first compound 0.06325 µM): 0.348
- relative viability (Dactolisib + Palbociclib; first compound 0.2 µM): 0.231
- relative viability (Dactolisib + Luminespib; first compound 0.002 µM): 1.13
- relative viability (Dactolisib + Luminespib; first compound 0.006325 µM): 0.818
- relative viability (Dactolisib + Luminespib; first compound 0.02 µM): 0.863
- relative viability (Dactolisib + Luminespib; first compound 0.06325 µM): 0.309
- relative viability (Dactolisib + Luminespib; first compound 0.2 µM): 0.321
